The record followed here is patent US8962891B2, “Synthetic analogs of sphingolipids” (Hadasit Medical Research Services & Development Limited, priority 2007, dated 2015).

Assay [1] relates to Pancreas tumor cells. In words: Pancreas tumor cell viability after combined treatment (MTT test). The settings on record: 24 h; for cell viability (MTT), combination of AD2730 and ADYZ197: 2 μM AD2730 combined with 10 μM ADYZ197. In kind it is cell-based. The method, then:
FIG. 3A-3B: The viability of pancreatic cells using different drug combination for 24, h (MTT test)
The inventors next examined the effect of combining the compound of the invention with known chemotherapeutic drugs. Pancreas tumor cells were incubated with 1 μM taxol and 2 μM AD2750, (separately and in combination). The results are shown in the left part of the graph, in FIG. 3A, as percent of viable cells (checked by MTT). A combination of 20 μM fluorouracil and 8 μM AD2750 is shown in the right part of the graph, in FIG. 3A.
The inventors next examined the potential anti-cancerous effect of other compounds of Formula II. Therefore, pancreas tumor cells were incubated with 2 μM AD2730 and 10 μM ADYZ197, separately and in combination. The results are presented in the left part of the graph, in FIG. 3B, as percent of viable cells (checked by MTT).
Background: Tetrazolium assays rely on reduction of a dye to a coloured formazan, in cell work by metabolically active cells.

Assay [2] has as its system LNCaP. The assay can be described thus: IC50 in cancer cell lines (Table 1), LNCaP. In kind it is cell-based. The settings on record: Homo sapiens, LNCaP (Prostate).
Assay [3] has as its system CRL-1976. The assay can be described thus: IC50 in cancer cell lines (Table 1), CRL-1976. Format: cell-based. The following applies: CRL-1976 (Sarcoma), incubation 24 hours, FCS yes, 0.2*10^6/ml plated cells.
Assay [4] relates to MDA-MB-435 cells. The assay can be described thus: MDA-MB-435 survival experiment in nude mice. The following applies: CD1-nude mice injected iv with 3×10^6 MDA-MB-435 cells; 20 mg/kg in the drinking water beginning day 1; to day 100. In kind it is in vivo. As to the method: CD1-nude mice were injected iv with 3×10^6 MDA-MB-435 cells, which are usually considered as metastatic human breast cancer, but recently are also considered as model cells for melanoma. The mice were treated with AD2750, 20 mg/kg in the drinking water beginning day 1. On day 100, the remaining mice were sacrificed, and the pathology was determined.

Assay [5] concerns Du-145. In words: IC50 in cancer cell lines (Table 1), Du-145. In kind it is cell-based. The following applies: Homo sapiens, Du-145 (Prostate).
The test system of assay [6] is CCL-224. In words: IC50 in cancer cell lines (Table 1), CCL-224. Format: cell-based. The settings on record: CCL-224 (Colon), incubation 24 hours, FCS no, 0.2*10^6/ml plated cells.
Assay [7] concerns BxPC-3 tumor. The assay can be described thus: BxPC-3 human pancreatic tumor xenograft efficacy study. Format: in vivo. The settings on record: BxPC-3 s.c. in athymic NCr-nu/nu mice. From the text:
BxPC-3 Human Pancreatic Tumor Model
Thirty-to-forty mg tumor fragments of BxPC-3 tumor from a continuous in vivo passage were implanted subcutaneously (sc) into athymic NCr-nu/nu mice using 12-gauge trocar needles.
Animals were purchased from NCI-approved animal facilities (4-5 weeks old) and acclimated in the laboratories one week prior to experimentation. The animals were housed in microisolator cages in a 12-hour light/dark cycle. Animals received filter-sterilized water and sterile rodent food ad libitum. Cages were changed a minimum of twice weekly. The animals were weighed twice weekly and observed daily (for about sixty days of experiment) for clinical signs.
Tumor Measurements and Body Weights: Tumors measurements and animal body weights are recorded twice weekly. Tumor volume was determined by caliper measurements (mm) and using the formula for an ellipsoid sphere: Length×Width^2/2=Volume (mm^3)
This commonly used formula is also used to calculate tumor weight, assuming unit density (1 mm^3=1 mg).
Parameters Evaluated: For sc tumors trials, a T-C value based on 1, 2, 3 or 4 tumor volume doubling time (days), as appropriate for the particular trial, was made. This evaluation is based on tumor size of the control animals at the end of the treatment period. A T/C (%) or T/C (%) value was determined. […]
(In general: Xenograft models place foreign cells or tissue in a host animal.)

For assay [8], the system named is CRL-1687. The assay can be described thus: IC50 in cancer cell lines (Table 1), CRL-1687. In kind it is cell-based. The following applies: CRL-1687 (Pancreas), incubation 24 hours, FCS yes, 0.2*10^6/ml plated cells.
For assay [9], the system named is pancreas tumor cells (CRL-1687). The assay can be described thus: Pancreas tumor (CRL-1687) growth in CD1-nude mice. In kind it is in vivo. The following applies: 5×10^6 CRL-1687 cells id, 30 mg/kg ip in 10% CE beginning day 1, up to 35 days. As to the method: In order to examine the applicability of the compounds of the invention as an anti-cancerous drug, the inventors next examined the effect of i.p. administration of AD2750, on pancreas tumor. Therefore, CD1-nude mice were injected id with 5×10^6 pancreas tumor cells (CRL-1687). The mice were treated ip, with AD2750, beginning day 1, 30, mg/kg in 0.2 ml 10% CE, for up to 35 days. Tumor size was measured and calculated every 5-7 days beginning day 8.

Assay [10] has as its system CRL-5803. The assay can be described thus: IC50 in cancer cell lines (Table 1), CRL-5803. In kind it is cell-based. The following applies: CRL-5803 (NSCLC, Lung carcinoma), incubation 24 hours, FCS yes, 0.1 × 10^6/ml plated cells.
The test system of assay [11] is PC-3. The assay can be described thus: IC50 in cancer cell lines (Table 1), PC-3. In kind it is cell-based. The following applies: Homo sapiens, PC-3 (Prostate).
Assay [12] concerns CRL-5891. The assay can be described thus: IC50 in cancer cell lines (Table 1), CRL-5891. Format: cell-based. The following applies: CRL-5891 (NSCLC, Lung carcinoma), incubation 24 hours, FCS no, 0.1 × 10^6/ml plated cells.
The test system of assay [13] is MEL624. In words: IC50 in cancer cell lines (Table 1), MEL624. The following applies: MEL624 (Melanoma), incubation 24 hours, FCS yes, 0.1 × 10^6/ml plated cells. In kind it is cell-based.
Assay [14] has as its system HL-60. The assay can be described thus: IC50 in cancer cell lines (Table 1), HL-60. In kind it is cell-based. The following applies: Homo sapiens; HL-60 (Promyelocytic leukemia), incubation 24 hours, FCS no, 0.1 × 10^6/ml plated cells.
[15] abbreviates: incubation 24 hours, FCS no, 0.1 × 10^6/ml plated cells.
Where [16] appears, read: incubation 72 hours, FCS yes, 0.05 × 10^6/ml plated cells.
Setting [17] is: incubation 24 hours, FCS yes, 0.1 × 10^6/ml plated cells.
Setting [18] is: incubation 48 hours, FCS yes, 0.1 × 10^6/ml plated cells.

Structures are written as SMILES. Bounds are passed on as bounds.

Take `CCCCNC(CO)C(O)c1ccccc1` (centres unmarked) [AD2730, 2-(butylamino)-1-phenylpropane-1,3-diol]: the “cell viability (MTT), combination of AD2730 and ADYZ197” value in assay [1] was “significant synergistic effect on reduction of cell viability”.
On to `CCCCCCCCCCCCCCNC(CO)CO` [AD2750, 2-(tetradecylamino)propane-1,3-diol], for which the IC50 (commonly the concentration that inhibits the measured activity by half) stood at 4.9 µM in assay [2] (LNCaP, 24 h, incubation 24 hours, FCS no, 0.1 × 10^6/ml plated cells); 15.2 µM in assay [2] (LNCaP, 24 h, incubation 24 hours, FCS yes, 0.1 × 10^6/ml plated cells); 8.7 µM in assay [2] (LNCaP, 48 h, incubation 48 hours, FCS yes, 0.1 × 10^6/ml plated cells); 3.9 µM in assay [2] (LNCaP, 72 h, incubation 72 hours, FCS yes, 0.05 × 10^6/ml plated cells); 5 µM in [3]; 3.3 µM in assay [5] (setting [15]). Further, the IC50 stood at 7.5 µM in assay [5] (setting [16]); 13 µM in assay [6]; 15 µM in assay [8]; 11 µM in assay [10]; 12.2 µM in assay [11] (setting [17]); 6.8 µM in [11] (setting [16]). The results for the IC50 in assay [12] and in assay [13] were 8 µM and 9 µM, respectively. The “survival of treated animals” value in [4] is on record as “increased survival”. Further, in assay [4], the tumor incidence result was “significantly reduced tumor incidence”. For the same compound, the “tumor cell viability (MTT), combination with Taxol” value in assay [1] (2 μM AD2750 combined with 1 μM taxol) was “markedly reduced tumor cell viability”. In addition, the “tumor cell viability (MTT), combination with fluorouracil” value in [1] (8 μM AD2750 combined with 20 μM fluorouracil) is reported as “markedly reduced tumor cell viability”. Further, in [7] (20 or 30 mg/kg i.p. daily for 28 days, vs vehicle), the “tumor volume, monotherapy” value is given as “clearly reduced tumor volume in a dose dependent manner”. Also, the “tumor volume, combination with Camptosar” value in assay [7] (AD2750 20 or 30 mg/kg with Camptosar 60 or 30 mg/kg i.p. for 28 days) is on record as “significant reduction in tumor volume”. Besides, in assay [9], the “reduction in tumor volume” value was “about 5 folds”.
As to `CCCCCCCCCCNC(CO)(CO)CO` [ADYZ195, 2-(decylamino)-2-(hydroxymethyl)propane-1,3-diol], the IC50 in [5] (setting [15]) and in assay [11] (setting [15]) was above 50 µM in each case.
Regarding `CCCCCCCCCCCCCCCCCCNC(CO)(CO)CO` [ADYZ197, 2-(octadecylamino)-2-(hydroxymethyl)propane-1,3-diol], the IC50 worked out at 42.9 µM in assay [2] (setting [15]); 23.9 µM in assay [2] (setting [18]); 3 µM in assay [2] (incubation 72 hours, FCS yes, 0.5 × 10^6/ml plated cells); 20 µM in [3]; 7.5 µM in assay [5] (setting [17]); 22 µM in [8]. Further, the concentration for half-maximal inhibition (IC50) is 20 µM in assay [10]; 8.2 µM in assay [11] (setting [18]); 4.4 µM in [11] (setting [16]); 15 µM in assay [14]; 10 µM in [12]; 3 µM in assay [13]. For the same compound, in assay [1], the “cell viability (MTT), combination of AD2730 and ADYZ197” value is reported as “significant synergistic effect on reduction of cell viability”. Also, the “tumor cell viability (MTT), combination with fluorouracil” value in assay [1] (10 μM ADYZ197 combined with 20 μM fluorouracil) is “significant reduction of tumor cell viability”.
